Source: patent publication US20260364089A1, “PYRIDOPYRIMIDINE KRAS INHIBITORS” (Treeline Biosciences, Inc., priority 2022, published 2026)

Target: T1, KRas G12V (Homo sapiens, UniProt P01116, G12V)
T1 construct: Biotinylated KRas G12V (aa 1-169) loaded with GDP nucleotide; biotin (biotinylated)
Assay: SOS1-Catalyzed Nucleotide Exchange Assay, KRas G12V (Method 2)
Assay type: biochemical
Conditions: Method 2, A; 5 nM KRas G12V (aa 1-169, GDP-loaded), 50 nM SOS1; read-out: KRas G12V IC50 (nM) (Method 2, A)
Procedure: KRas G12V [Method 2]: Compounds were pre-dispensed via Echo liquid handling (acoustic, touch-free) to generate assay ready plates (ARP). More precisely, a 10-point concentration response curve for each compound was prepared with appropriate top concentration (1 μM, 10 μM, 100 μM). Biotinylated KRas G12V (aa 1-169) loaded with GDP nucleotide and Streptavidin-Europium (SA-EU, Columbia Biosciences) were preincubated in assay buffer (20 mM HEPES pH 7.4, 150 mM NaCl, 5 mM MgCl2, 1 mM DTT, 0.01% Brij-35, 0.3 mg/mL BSA) on ice for 30 min. Separately SOS1 (aa 546-1049) and EDA-GTP-DY647P1 (Jena Bioscience) were preincubated in assay buffer on ice for 30 min. After 30 minutes of incubation for the assay components, 5 μL buffer and 5 μL of KRas G12V-SA-Eu were added to each well of the ARP. After a further 30 min, 5 μL of SOS1-EDA-GTP-D467P1 was added to start the nucleotide exchange reaction. Final concentration in the assay were 5 nM KRas G12V, 50 nM SOS1 (aa 564-1049). The reaction was allowed to proceed for 60-90 minutes after which the plate was read on a plate reader. After normalization of the raw data, the data was fit to a four-parameter logistic curve.

T1 sequence (P01116 1-169 G12V): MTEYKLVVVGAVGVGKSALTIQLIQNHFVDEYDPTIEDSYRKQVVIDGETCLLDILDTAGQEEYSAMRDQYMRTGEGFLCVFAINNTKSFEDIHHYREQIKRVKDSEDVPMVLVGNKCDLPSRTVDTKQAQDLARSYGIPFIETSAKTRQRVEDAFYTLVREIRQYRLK

Row | IC50 [nM] | Compound
1 | 100 to 1000 | Nc1cc2c3c(c(F)ccc3c1)CCCC(=O)NCCC1CCCN(C1)c1nc(OC[C@@]34CCCN3C[C@H](F)C4)nc3c(F)c-2ccc13 (stereo partly drawn) [Compound 190a, 3^3-amino-2^8,3^7-difluoro-2^2-(((2R,7aS)-2-fluorotetrahydro-1H-pyrrolizin-7a(5H)-yl)methoxy)-8-aza-2(4,7)-quinazolina-1(1,3)-piperidina-3(1,8)-naphthalenacyclodecaphan-7-one]
2 | 100 to 1000 | O=C1CCCc2c(F)ccc3cccc(c23)-c2ccc3c(nc(OC[C@@]45CCCN4C[C@H](F)C5)nc3c2F)N2CCCC(CCN1)C2 (stereo partly drawn) [Compound 191a, 2^8,3^7-difluoro-2^2-(((2R,7aS)-2-fluorotetrahydro-1H-pyrrolizin-7a(5H)-yl)methoxy)-8-aza-2(4,7)-quinazolina-1(1,3)-piperidina-3(1,8)-naphthalenacyclodecaphan-7-one]
3 | 1000 to 10000 | Nc1cc2c(cc1F)CCCCC(=O)NCCC1(O)CCCN(C1)c1nc(OC[C@@]34CCCN3C[C@H](F)C4)nc3c(F)c-2ncc13 (stereo partly drawn) [Compound 161a, 3^5-amino-2^8,3^4-difluoro-2^2-(((2R,7aS)-2-fluorotetrahydro-1H-pyrrolizin-7a(5H)-yl)methoxy)-1^3-hydroxy-9-aza-2(4,7)-pyrido[4,3-d]pyrimidina-1(1,3)-piperidina-3(1,2)-benzenacycloundecaphan-8-one]
4 | 1000 to 10000 | Nc1cc(Cl)c2c(c1)-c1c(Cl)cc3c(nc(OC[C@@]45CCCN4C[C@H](F)C5)nc3c1F)N1CCCC(O)(CCNC(=O)CCCC2)C1 (stereo partly drawn) [Compound 158a, 3^5-amino-2^6,3^3-dichloro-2^8-fluoro-2^2-(((2R,7aS)-2-fluorotetrahydro-1H-pyrrolizin-7a(5H)-yl)methoxy)-1^3-hydroxy-9-aza-2(4,7)-quinazolina-1(1,3)-piperidina-3(1,2)-benzenacycloundecaphan-8-one]

Same assay, conditions: Method 2, B; 5 nM KRas G12V (aa 1-169, GDP-loaded), 50 nM SOS1; read-out: KRas G12V IC50 (nM) (Method 2, B)

Row | IC50 [nM] | Compound
5 | ≤ 100 | O=C1CCCCc2ccc3[nH]ncc3c2-c2ccc3c(nc(OC[C@@]45CCCN4C[C@H](F)C5)nc3c2F)N2CCCC(CCN1)C2 (stereo partly drawn) [Compound 166a, 2^8-fluoro-2^2-(((2R,7aS)-2-fluorotetrahydro-1H-pyrrolizin-7a(5H)-yl)methoxy)-1^1H-6-aza-2(7,4)-quinazolina-1(4,5)-indazola-3(1,3)-piperidinacycloundecaphan-7-one]
6 | ≤ 100 | Nc1cc(Cl)c2c(c1)-c1ccc3c(nc(OC[C@@]45CCCN4C[C@H](F)C5)nc3c1F)N1CCCC(CCNC(=O)CCCC2)C1 (stereo partly drawn) [Compound 165a, 3^5-amino-3^3-chloro-2^8-fluoro-2^2-(((2R,7aS)-2-fluorotetrahydro-1H-pyrrolizin-7a(5H)-yl)methoxy)-9-aza-2(4,7)-quinazolina-1(1,3)-piperidina-3(1,2)-benzenacycloundecaphan-8-one]
7 | ≤ 100 | CN(C)CC1(COc2nc3c4ccc(c(F)c4n2)-c2c(c(Cl)cc4[nH]ncc24)CCCCC(=O)NCCC2CCCN3C2)CC1 (single isomer, unassigned) [Compound 197b, 1^6-chloro-2^2-((1-((dimethylamino)methyl)cyclopropyl)methoxy)-2^8-fluoro-1^1H-6-aza-2(7,4)-quinazolina-1(4,5)-indazola-3(1,3)-piperidinacycloundecaphan-7-one]
8 | 100 to 1000 | Nc1cc2c3c(c(F)ccc3c1)CCCC(=O)NCCC1CCCN(C1)c1nc(OC[C@@]34CCCN3C[C@H](F)C4)nc3c(F)c-2ccc13 (stereo partly drawn) [Compound 190a, 3^3-amino-2^8,3^7-difluoro-2^2-(((2R,7aS)-2-fluorotetrahydro-1H-pyrrolizin-7a(5H)-yl)methoxy)-8-aza-2(4,7)-quinazolina-1(1,3)-piperidina-3(1,8)-naphthalenacyclodecaphan-7-one]
9 | ≤ 100 | O=C1CCCCc2c(Cl)cc3[nH]ncc3c2-c2ccc3c(nc(OC[C@@]45CCCN4C[C@H](F)C5)nc3c2F)N2CCCC(CCN1)C2 (single isomer, unassigned) [Compound 202b]
10 | ≤ 100 | O=C1CCCCc2c(Cl)cc3[nH]ncc3c2-c2ncc3c(nc(OC[C@@]45CCCN4C[C@H](F)C5)nc3c2F)N2CCCC(CCN1)C2 (stereo partly drawn) [Compound 196a, 1^6-chloro-2^8-fluoro-2^2-(((2R,7aS)-2-fluorotetrahydro-1H-pyrrolizin-7a(5H)-yl)methoxy)-1^1H-6-aza-2(7,4)-pyrido[4,3-d]pyrimidina-1(4,5)-indazola-3(1,3)-piperidinacycloundecaphan-7-one]
11 | ≤ 100 | O=C1CCCc2c(F)ccc3cccc(c23)-c2ccc3c(nc(OC[C@@]45CCCN4C[C@H](F)C5)nc3c2F)N2CCCC(CCN1)C2 (stereo partly drawn) [Compound 191a, 2^8,3^7-difluoro-2^2-(((2R,7aS)-2-fluorotetrahydro-1H-pyrrolizin-7a(5H)-yl)methoxy)-8-aza-2(4,7)-quinazolina-1(1,3)-piperidina-3(1,8)-naphthalenacyclodecaphan-7-one]
12 | 100 to 1000 | Nc1cc(Cl)c2c(c1)-c1ncc3c(nc(OC[C@@]45CCCN4C[C@H](F)C5)nc3c1F)N1C[C@H](F)C[C@H](C1)NC(=O)CCCC2 [Compound 201a, (1^3R,1^5R)-3^5-amino-3^3-chloro-1^5,2^8-difluoro-2^2-(((2R,7aS)-2-fluorotetrahydro-1H-pyrrolizin-7a(5H)-yl)methoxy)-9-aza-2(4,7)-pyrido[4,3-d]pyrimidina-1(1,3)-piperidina-3(1,2)-benzenacyclononaphan-8-one]
13 | ≤ 100 | O=C1CCCCc2c(Cl)cc3[nH]ncc3c2-c2ccc3c(nc(OC[C@@]45CCCN4C[C@H](F)C5)nc3c2F)N2CCCC(CCN1)C2 (single isomer, unassigned) [Compound 202a]
14 | ≤ 100 | O=C1CCCCc2c(Cl)cc3[nH]ncc3c2-c2ccc3c(nc(OC[C@@]45CCCN4C[C@H](F)C5)nc3c2F)N2CCOCC(CN1)C2 (stereo partly drawn) [Compound 198a, 3^6-chloro-2^8-fluoro-2^2-(((2R,7aS)-2-fluorotetrahydro-1H-pyrrolizin-7a(5H)-yl)methoxy)-3^1H-9-aza-1(4,6)-oxazepana-2(4,7)-quinazolina-3(4,5)-indazolacyclodecaphan-8-one]
15 | 10000 to 30000 | Nc1cc2c(c(Cl)n1)CCCCC(=O)NCCC1(O)CCCN(C1)c1nc(OC[C@@]34CCCN3C[C@H](F)C4)nc3c(F)c-2c(F)cc13 (single isomer, unassigned) [Compound 188a]
16 | 100 to 1000 | Nc1cc(Cl)c2c(c1)-c1ncc3c(nc(OCC4(CN5CCOCC5)CC4)nc3c1F)N1CCCC(CCNC(=O)CCCC2)C1 (stereo not shown) [Compound 177, 3^5-amino-3^3-chloro-2^8-fluoro-2^2-((1-(morpholinomethyl)cyclopropyl)methoxy)-9-aza-2(4,7)-pyrido[4,3-d]pyrimidina-1(1,3)-piperidina-3(1,2)-benzenacycloundecaphan-8-one]
17 | ≤ 100 | O=C1CCCc2c(F)ccc3cc(O)cc(c23)-c2ccc3c(nc(OC[C@@]45CCCN4C[C@H](F)C5)nc3c2F)N2CCCC(CCN1)C2 (stereo partly drawn) [Compound 175a, 2^8,3^7-difluoro-2^2-(((2R,7aS)-2-fluorotetrahydro-1H-pyrrolizin-7a(5H)-yl)methoxy)-3^3-hydroxy-8-aza-2(4,7)-quinazolina-1(1,3)-piperidina-3(1,8)-naphthalenacyclodecaphan-7-one]
18 | ≤ 100 | O=C1CCCc2c(F)ccc3cc(O)cc(c23)-c2ncc3c(nc(OC[C@@]45CCCN4C[C@H](F)C5)nc3c2F)N2CCOCC(CN1)C2 (stereo partly drawn) [Compound 173a, 2^8,3^7-difluoro-2^2-(((2R,7aS)-2-fluorotetrahydro-1H-pyrrolizin-7a(5H)-yl)methoxy)-3^3-hydroxy-8-aza-1(4,6)-oxazepana-2(4,7)-pyrido[4,3-d]pyrimidina-3(1,8)-naphthalenacyclononaphan-7-one]
19 | 100 to 1000 | Nc1cc2c(c(Cl)c1F)CCCCC(=O)NCCC1(O)CCCN(C1)c1nc(OC[C@@]34CCCN3C[C@H](F)C4)nc3c(F)c-2ccc13 (stereo partly drawn) [Compound 180a, 3^5-amino-3^3-chloro-2^8,3^4-difluoro-2^2-(((2R,7aS)-2-fluorotetrahydro-1H-pyrrolizin-7a(5H)-yl)methoxy)-13-hydroxy-9-aza-2(4,7)-quinazolina-1(1,3)-piperidina-3(1,2)-benzenacycloundecaphan-8-one]
